Assay results from patent US20200085776A1, “Methods of Reducing C-Reactive Protein and/or Treating Cardiovascular Disease” (CARDAX, INC., priority 2018, published 2020).

System: LDL
Assay: Fasting lipid panel: LDL, CHASE clinical study
Format: in vivo, human
Conditions: for LDL V2 to V6 % Change Max / LDL V2 to V6 % Change Mean (SD) / LDL V2 to V6 % Change Median / LDL V2 to V6 % Change Min / LDL V2 to V6 Change Max / LDL V2 to V6 Change Mean (SD) / LDL V2 to V6 Change Median / LDL V2 to V6 Change Min: baseline to Week 12
Excerpt: Blood samples shall be obtained under fasted conditions for a lipid panel at V2, V4, V6, V7, and V8. This panel shall include total cholesterol, LDL-C, VLDL-C, HDL-C, and triglycerides. A minimum eight-hour fast (water allowed) is required for the lipid panel.
Fasting lipid profiles and fasting chemistry panels may be obtained within the visit time window on a day separate from the scheduled office visit, within two days before or after the other study procedures. A minimum of eight hours fasted (water allowed ad lib) is required.
Table 7M provides the changes in lipid levels (mg/dL) (V2 to V6) for subjects.

[1] = Group X 12 mg BID, V2 baseline pre-dose, all subjects
[2] = Group X 12 mg BID, V2 baseline pre-dose, subjects with hyperlipidemia
[3] = Group X 12 mg BID, V6 Week 12, all subjects
[4] = Group X 12 mg BID, V6 Week 12, subjects with hyperlipidemia
[5] = Group X 12 mg BID, all subjects
[6] = Group X 12 mg BID, subjects with hyperlipidemia
[7] = Group Z 48 mg BID, V2 baseline pre-dose, all subjects
[8] = Group Z 48 mg BID, V2 baseline pre-dose, subjects with hyperlipidemia
[9] = Group Z 48 mg BID, V6 Week 12, all subjects
[10] = Group Z 48 mg BID, V6 Week 12, subjects with hyperlipidemia
[11] = Group Z 48 mg BID, all subjects

## CC1=C(/C=C/C(C)=C/C=C/C(C)=C/C=C/C=C(C)/C=C/C=C(C)/C=C/C2=C(C)C(=O)C(O)CC2(C)C)C(C)(C)CC(O)C1=O (centres unmarked) [Astaxanthin, astaxanthin]
[1]
  LDL Max: 220.0 mg/dL
  LDL Mean (SD): 111.9 (61.26) mg/dL
  LDL Median: 112.0 mg/dL
  LDL Min: 37.00 mg/dL
[2]
  LDL Max: 220.0 mg/dL
  LDL Mean (SD): 99.00 (66.54) mg/dL
  LDL Median: 73.00 mg/dL
  LDL Min: 37.00 mg/dL
[3]
  LDL Max: 236.0 mg/dL
  LDL Mean (SD): 109.6 (67.65) mg/dL
  LDL Median: 102.0 mg/dL
  LDL Min: 40.00 mg/dL
[4]
  LDL Max: 236.0 mg/dL
  LDL Mean (SD): 94.57 (70.92) mg/dL
  LDL Median: 60.00 mg/dL
  LDL Min: 40.00 mg/dL
[5]
  LDL V2 to V6 % Change Max: 21.62%
  LDL V2 to V6 % Change Mean (SD): −3.46 (13.64) %
  LDL V2 to V6 % Change Median: −7.02%
  LDL V2 to V6 % Change Min: −21.6%
  LDL V2 to V6 Change Max: 17.00 mg/dL
  LDL V2 to V6 Change Mean (SD): −2.30 (12.98) mg/dL
  LDL V2 to V6 Change Median: -6.50 mg/dL
  LDL V2 to V6 Change Min: -18.0 mg/dL
[6]
  LDL V2 to V6 % Change Max: 21.62%
  LDL V2 to V6 % Change Mean (SD): −5.19 (15.13) %
  LDL V2 to V6 % Change Median: −10.2%
  LDL V2 to V6 % Change Min: −21.6%
  LDL V2 to V6 Change Max: 16.00 mg/dL
  LDL V2 to V6 Change Mean (SD): −4.43 (12.39) mg/dL
  LDL V2 to V6 Change Median: -11.0 mg/dL
  LDL V2 to V6 Change Min: -18.0 mg/dL
[7]
  LDL Max: 206.0 mg/dL
  LDL Mean (SD): 99.13 (46.59) mg/dL
  LDL Median: 84.00 mg/dL
  LDL Min: 34.00 mg/dL
[8]
  LDL Max: 166.0 mg/dL
  LDL Mean (SD): 89.33 (40.83) mg/dL
  LDL Median: 75.50 mg/dL
  LDL Min: 34.00 mg/dL
[9]
  LDL Max: 176.0 mg/dL
  LDL Mean (SD): 90.31 (37.82) mg/dL
  LDL Median: 81.00 mg/dL
  LDL Min: 49.00 mg/dL
[10]
  LDL Max: 176.0 mg/dL
  LDL Mean (SD): 82.42 (37.25) mg/dL
  LDL Median: 70.00 mg/dL
  LDL Min: 49.00 mg/dL
[11]
  LDL V2 to V6 % Change Max: 15.71%
  LDL V2 to V6 % Change Mean (SD): −14.5 (17.99) %
  LDL V2 to V6 % Change Median: −12.0%
  LDL V2 to V6 % Change Min: −50.0%
  LDL V2 to V6 Change Max: 11.00 mg/dL
  LDL V2 to V6 Change Mean (SD): −18.9 (24.97) mg/dL
  LDL V2 to V6 Change Median: -11.0 mg/dL
  LDL V2 to V6 Change Min: -83.0 mg/dL
